{"source": "paper PMC8725971", "about": "“Polycyclic nitrogen heterocycles as potential thymidine phosphorylase inhibitors: synthesis, biological evaluation, and molecular docking study” (Journal of Enzyme Inhibition and Medicinal Chemistry, 2021)", "key": {"[1]": {"experiment": "Solubility in the incubation medium", "conditions": "for solubility: aqueous buffer, kinetic from dmso stock; for Solubility (in words): incubation medium"}, "[2]": {"molecular_target": "T1, E. coli TP (Escherichia coli, UniProt P07650)", "T1 construct": "purchased Sigma Aldrich T2807-1KU", "T1 sequence (P07650 whole entry)": "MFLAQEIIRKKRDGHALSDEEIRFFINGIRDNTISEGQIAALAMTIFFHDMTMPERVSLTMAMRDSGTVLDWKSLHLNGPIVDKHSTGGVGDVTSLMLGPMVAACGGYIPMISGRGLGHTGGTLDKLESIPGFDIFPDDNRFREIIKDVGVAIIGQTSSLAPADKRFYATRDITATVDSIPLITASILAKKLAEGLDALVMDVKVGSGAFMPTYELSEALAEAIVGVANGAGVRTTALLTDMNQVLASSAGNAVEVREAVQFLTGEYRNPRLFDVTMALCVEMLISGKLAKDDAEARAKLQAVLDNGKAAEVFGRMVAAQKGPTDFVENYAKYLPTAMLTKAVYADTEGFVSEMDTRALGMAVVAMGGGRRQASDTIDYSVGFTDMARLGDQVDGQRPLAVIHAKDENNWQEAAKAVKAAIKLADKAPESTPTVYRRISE", "experiment": "In vitro E. coli thymidine phosphorylase inhibition, spectrophotometric assay at 290 nm", "format": "biochemical", "conditions": "for IC50: 300 µM thymidine, pH 7.4, 25 °C; for inhibition at 50 µM: compound at 50 µM, average of three measurements", "experimental": "The adopted protocol is a modification of the original method developed by Khan[51]. TP activity and inhibition assays were based on the phosphorolysis of thymidine to thymine, this conversion results in a significant spectrophotometric decrease. At 290 nm and pH 7.4, thymidine has a higher extinction coefficient than thymine (Δε = −480 M^−1 cm^−1). The absorbance at 290 nm was measured every 2 min for 30 min in 96-well plates at 25 °C.\nThymidine was dissolved in buffer (3 mM). […] All experiments were conducted in triplicate.\nThe method reported by Khan et al.[51] has been adapted to a screening in 96-well plates (200 µL well, UV-Star® 96-well microplate, Greiner). Each well contained 160 µL of 50 mM KH2PO4 buffer (pH 7.4), 0.006 U of E. coli TP (T2807-1KU, Sigma Aldrich), and 20 µL of the tested compound solution. […] The decrease in absorbance due to conversion of thymidine to thymine was followed during 30 min (PowerWave HT Microplate Reader, Biotek) at 25 °C, with one measure every 2 min and a 30 s shaking before each measure."}, "[3]": {"test_system": "epidermal carcinoma cells (A431)", "experiment": "Cell proliferation assay (MTT), A431", "format": "cell-based", "conditions": "Homo sapiens, 72 h, read-out: Growth inhibition, A431", "experimental": "(§1) The inhibitory effect on cell proliferation was assessed using MTT assay[53] after 72 h of treatment through dose-response assays performed in the 100 µM to 0.1 µM concentration range. The results were expressed as percentages of growth inhibition.\n(§2) Cell viability was determined on HUVEC and A431 cell lines using 3–(4,5-dimethylthiazol-2-yl)-2,5-diphenyltetrazolium bromide (MTT; Sigma-Aldrich) assay[53] after treatment with compounds 2d and 2p. A total of 5 × 10^3 cells/well (A431 cell line) or 10^4 cells/well (HUVEC cell line) were plated in a 96-well plate and treated, in duplicates, with compounds 2d and 2p at five concentrations (0.1 µM, 1 μM, 10 μM, 50 μM, 100 μM) for 72 h. Absorbance was read at 570 nm using Labsystem Multiskan MS microplate reader. The results were expressed as percentages of growth inhibition compared to positive control cell growth (100%)."}, "[4]": {"test_system": "human umbilical vein endothelial cells (HUVEC)", "experiment": "Cell proliferation assay (MTT), HUVEC", "format": "cell-based", "conditions": "72 h, read-out: Growth inhibition, HUVEC", "experimental": "as §1, §2"}, "[5]": {"molecular_target": "T1, E. coli TP", "experiment": "Enzyme inhibition kinetic study (Lineweaver-Burk)", "format": "biochemical", "conditions": "for Km values in the presence of inhibitor / Vmax values in the presence of inhibitor: increasing inhibitor concentration; for Type of TP inhibition: thymidine as substrate, Lineweaver-Burk plots", "experimental": "The percentage of TP inhibition was determined for different concentrations of the inhibitors and thymidine.\nFigure 7. […] Results are presented as means ± SD; SD denoted by error bars (experiments carried out in triplicate).\nThe TP inhibiting activity at differents concentrations of compound 2d (0, 15, 20, 30 µM) and 2p (0, 4, 6, 8 µM) was evaluated in the presence of different concentrations of thymidine ([…]) in KH2PO4 buffer (pH 7.4)."}, "[6]": {"experiment": "physchem", "conditions": "aqueous buffer, kinetic from dmso stock"}, "[7]": {"molecular_target": "T1, E. coli TP", "experiment": "Phosphate competition study", "format": "biochemical", "conditions": "saturating thymidine, phosphate 2–30 mM, compound at its IC50", "experimental": "The synthesised compounds have been designed as TP inhibitors interacting with the thymidine fixation site. […] E. coli TP activity was determined in the presence of a saturating concentration of thymidine (equivalent to three times the value of the Michaelis-Menten constant [km][52]) and variable amounts of phosphate (2–30 mM). Tested compounds have been used at a concentration corresponding to the IC50.\nFor this study, the reaction mixture was composed of 160 µL of 10 mM Tris buffer (pH 7.4), 150 mM NaCl, 2 mM EDTA, 0.006 U of E. coli TP, different concentrations of KH2PO4 (2, 5, 10 and 30 mM). Compounds were tested at a concentration close to their IC50. The reaction was initiated by the addition of 20 µL of thymidine (3 mM and 10 mM solutions)."}, "[8]": {"test_system": "hTP", "parameters": "method as in PMID 27783978", "conditions": "cited from earlier work"}}, "note": "Structures can show the parent of a compound that is named as a salt."}
{"smiles": "COc1ccc2cc3c(=O)[nH]c(=O)[nH]c3nc2c1", "note": "[Compound 2d]", "values": [{"measurement": "solubility", "setting": "[1]", "value": "> 50", "unit": "µM"}, {"measurement": "IC50", "setting": "[2]", "value": 28, "unit": "µM"}, {"measurement": "inhibition at 50 µM", "setting": "[2]; 2.5% DMSO", "value": 89, "unit": "%"}, {"measurement": "inhibition at 50 µM", "setting": "[3]; A-431, 50 µM", "value": 57, "unit": "%"}, {"measurement": "inhibition at 100 µM", "setting": "[4]", "value": 56, "unit": "%"}, {"measurement": "Km values in the presence of inhibitor", "setting": "[5]", "value": "increased"}, {"measurement": "Vmax values in the presence of inhibitor", "setting": "[5]", "value": "did not change significantly"}, {"measurement": "Type of TP inhibition", "setting": "[5]", "value": "competitive"}]}
{"smiles": "O=c1[nH]c(=O)c2cc3cc4c(cc3nc2[nH]1)OCO4", "note": "[Compound 2g]", "values": [{"measurement": "Solubility (in words)", "setting": "[1]", "value": "sparingly soluble"}, {"measurement": "inhibition at 15 µM", "setting": "[2]; compound at 15 µM (maximum solubility), 2.5% DMSO", "value": 0, "unit": "%"}, {"measurement": "solubility", "setting": "[6]", "value": 15, "unit": "µM"}]}
{"smiles": "COc1ccc2c(C)c3c(=O)[nH]c(=O)[nH]c3nc2c1", "note": "[Compound 2p]", "values": [{"measurement": "solubility", "setting": "[1]", "value": "> 50", "unit": "µM"}, {"measurement": "IC50", "setting": "[2]", "value": 26, "unit": "µM"}, {"measurement": "inhibition at 50 µM", "setting": "[2]; 2.5% DMSO", "value": 67, "unit": "%"}, {"measurement": "inhibition at 100 µM", "setting": "[3]; A-431, 100 µM", "value": 50, "unit": "%"}, {"measurement": "inhibition at 100 µM", "setting": "[4]", "value": 31, "unit": "%"}, {"measurement": "Km values in the presence of inhibitor", "setting": "[5]", "value": "increased"}, {"measurement": "Vmax values in the presence of inhibitor", "setting": "[5]", "value": "did not change significantly"}, {"measurement": "Type of TP inhibition", "setting": "[5]", "value": "competitive"}, {"measurement": "Binding to the phosphate site", "setting": "[7]", "value": "did not bind to the phosphate site"}]}
{"smiles": "O=C1c2cc3cc4c(cc3nc2C(=O)N1Cc1[nH]c(=O)[nH]c(=O)c1Br)OCO4", "note": "[Compound 23b, 2-[(5-Bromo-2,6-dioxo-1,2,3,6-tetrahydropyrimidin-4-yl)methyl]-6,7-methylenedioxy-1H-pyrrolo[3,4-b]quinoline-1,3(2H)-dione]", "values": [{"measurement": "solubility", "setting": "[1]", "value": 50, "unit": "µM"}, {"measurement": "Solubility (in words)", "setting": "[1]", "value": "less soluble"}, {"measurement": "inhibition at 50 µM", "setting": "[2]; 2.5% DMSO", "value": 30, "unit": "%"}, {"measurement": "melting point", "value": "370 to 372 °C (dec.)"}, {"measurement": "Binding to the phosphate site", "setting": "[7]", "value": "did not bind to the phosphate site"}]}
{"smiles": "O=C1c2cc3c(=O)[nH]c(=O)[nH]c3nc2C(=O)N1Cc1ccccc1", "note": "[Compound 28a]", "values": [{"measurement": "solubility", "setting": "[1]", "value": "> 50", "unit": "µM"}, {"measurement": "IC50", "setting": "[2]", "value": 62, "unit": "µM"}, {"measurement": "inhibition at 50 µM", "setting": "[2]; 2.5% DMSO", "value": 44, "unit": "%"}, {"measurement": "Binding to the phosphate site", "setting": "[7]", "value": "did not bind to the phosphate site"}]}
{"smiles": "O=C(NCc1cc(=O)[nH]c(=O)[nH]1)c1cc2c(=O)[nH]c(=O)[nH]c2nc1C(=O)NCc1cc(=O)[nH]c(=O)[nH]1", "note": "[Compound 30, N^6,N^7-Bis((2,6-dioxo-1,2,3,6-tetrahydropyrimidin-4-yl)methyl)-2,4-dioxo-1,2,3,4-tetrahydropyrido[2,3-d]pyrimidine-6,7-dicarboxamide]", "values": [{"measurement": "solubility", "setting": "[1]", "value": "> 50", "unit": "µM"}, {"measurement": "IC50", "setting": "[2]", "value": 87, "unit": "µM"}, {"measurement": "inhibition at 50 µM", "setting": "[2]; 2.5% DMSO", "value": 31, "unit": "%"}, {"measurement": "melting point", "value": "259 to 261 °C (dec.)"}, {"measurement": "Binding to the phosphate site", "setting": "[7]", "value": "did not bind to the phosphate site"}]}
{"smiles": "N=C1CCCN1Cc1[nH]c(=O)[nH]c(=O)c1Cl", "note": "[TPI, 5-chloro-6-[1-(2-iminopyrrolidinyl)methyl]uracil hydrochloride]", "values": [{"measurement": "IC50", "setting": "[8]", "value": 0.035, "unit": "µM"}]}
